{
  "source": "patent US11959104B2",
  "about": "“Methods of differentiating stem cell-derived ectodermal lineage precursors” (MEMORIAL SLOAN-KETTERING CANCER CENTER, priority 2016, dated 2024)",
  "key": {"[1]": {"test_system": "hPSCs", "assay": "Toxicity of KSR-protocol small molecule concentrations in E6 differentiation", "type": "cell-based, human", "conditions": "original KSR-protocol concentration used in E6", "source_text": "To transition these protocols into the more defined E6 media, we adapted hPSCs in E8 for multiple passages and simply replaced the KSR-based medium with an E6 based differentiation while maintaining factors and concentrations as described previously to trigger the 4 major ectodermal lineages (FIG. 9A). […] After determining an optimal non-toxic concentration for each of the small molecules we observed that NE formation under E6 conditions was equivalent to that obtained with KSR-based conditions. […] We compared the efficiency of generating PAX6 positive cells using either no small molecules, using dSMADi or using the single TGFβ inhibitor SB431542 (SB). We found robust PAX6 expression in the absence of dSMADi (˜40% of total cells on day 12 post induction). However, the percentage of cells expressing PAX6 was further improved upon addition of SB or dSMADi to nearly 90% and 80%, respectively (FIGS. 1E and 9B)."}, "[2]": {"test_system": "SIX1 placode cells", "assay": "Trigeminal placode induction by Wnt activation pulse", "type": "cell-based, human", "conditions": "additional pulse after the BMP pulse", "procedure": "(§1) All differentiations starting from E8 were dissociated into single cells using EDTA and replated at high density in E8 with the ROCK inhibitor (Tocris). Cells were typically seeded at a density of 200,000 cells/cm^2 on Matrigel coated dishes. Switching from E8 to E6 triggered differentiations (i.e. d0). Neuroectoderm (NE) formation was generated by culturing the cells in E6 with […] and 500 nM LDN until d12. Neural Crest (NC) was first treated with […], 600 nM CHIR and 1 ng/ml BMP4 from d0-d2. At d2, cells were maintained in […] with 1.5 uM CHIR until d12. Lens placode was first treated with […] and 5 ng/ml BMP4 from d0-d2. At d2, cells were maintained in […] with 100 ng/ml FGF2 until d12. Trigeminal placode was first treated with […] and 5 ng/ml BMP4 from d0-d2. At d2, CHIR was added to the SB and BMP4 until d4. Finally, non-neural ectoderm (NNE) was treated with 10 nM SB, 10 nM SU5402 and 20 ng/ml BMP4 until d12."}, "[3]": {"test_system": "rodent GSK3β homologs", "conditions": "cited from earlier work"}, "[4]": {"test_system": "human pluripotent stem cells", "assay": "Neuroectoderm induction in E6 media, PAX6 positive cells (PAX6::H2B-GFP reporter)", "type": "cell-based", "conditions": "day 12 post induction, without small molecules ~40%", "procedure": "as §1, with “H9 ESCs (WA09) and modified reporter lines (passage 40-70) were cultured in the Knockout Serum Replacement (KSR) (Life Technologies) based media (DMEM-F12, 20% KSR, L-glutamate and 10 ng/ml FGF2) on mouse embryonic fibroblast feeders. KSR hPSCs were directly transferred to the E8 media (Life Technologies) coated with Vitronectin and adapted for 4-5 passages before differentiations were performed. KSR based differentiations were performed as previously described, neuroectoderm and neural crest (Mica et al., 2013), and placode and non-neural ectoderm ([…] et al., 2013). All” for “All”, “At d2, CHIR was added to the SB and BMP4 until d4. Finally, non-neural ectoderm (NNE) was treated with 10 nM SB, 10 nM SU5402 and 20 ng/ml BMP4 until d12.” left out"}, "[5]": {"test_system": "Six1::H2B-GFP reporter line", "assay": "LOPAC small molecule screen and validation for enhanced CP induction", "conditions": "CP protocol after the addition of FGF2", "experimental": "All differentiations starting from E8 were dissociated into single cells using EDTA and replated at high density in E8 with the ROCK inhibitor (Tocris). Cells were typically seeded at a density of 200,000 cells/cm^2 on Matrigel coated dishes. Switching from E8 to E6 triggered differentiations (i.e. d0). Neuroectoderm (NE) formation was generated by culturing the cells in E6 with 10 nM SB and 500 nM LDN until d12. Neural Crest (NC) was first treated with 10 nM SB, 600 nM CHIR and 1 ng/ml BMP4 from d0-d2. […] Lens placode was first treated with 10 nM SB and 5 ng/ml BMP4 from d0-d2. At d2, cells were maintained in 10 nM SB with 100 ng/ml FGF2 until d12. Trigeminal placode was first treated with 10 nM SB and 5 ng/ml BMP4 from d0-d2. At d2, CHIR was added to the SB and BMP4 until d4. Finally, non-neural ectoderm (NNE) was treated with 10 nM SB, 10 nM SU5402 and 20 ng/ml BMP4 until d12."}, "[6]": {"test_system": "hPSC", "assay": "Cranial placode induction in E6 media, SIX1 positive cells, FGF addition", "type": "cell-based, human", "conditions": "added to E6 culture comprising SB431542 and BMP", "procedure": "as §1"}},
  "data": [
    {"compound": "Cc1c[nH]c(-c2cnc(NCCNc3ccc(C#N)cn3)nc2-c2ccc(Cl)cc2Cl)n1", "note": "[CHIR99021, 6-(2-(4-(2,4-dichlorophenyl)-5-(4-methyl-1H-imidazol-2-yl)pyrimidin-2-ylamino)ethylamino)nicotinonitrile]", "values": [
      {"measurement": "cell killing during differentiation", "setting": "[1]", "result": "effectively killed the cells"},
      {"measurement": "PAX3 expression in SIX1 placode cells", "setting": "[2]", "result": "capable of triggering PAX3 expression"},
      {"measurement": "IC50 values against rodent GSK3β homologs", "setting": "[3]", "result": "nanomolar"}
    ]},
    {"compound": "NC(=O)c1ccc(-c2nc(-c3ccc4c(c3)OCO4)c(-c3ccccn3)[nH]2)cc1", "note": "[SB431542, 4-[4-(1,3-benzodioxol-5-yl)-5-(2-pyridinyl)-1H-imidazol-2-yl]-benzamide]", "values": [
      {"measurement": "percentage of cells expressing PAX6", "setting": "[4]", "result": "~90", "unit": "%"}
    ]},
    {"compound": "FGF2: activator of FGF signaling", "values": [
      {"measurement": "Six1 positive cells", "setting": "[5]", "result": 34, "unit": "%"},
      {"measurement": "SIX1 positive CP cells", "setting": "[6]", "result": "~50", "unit": "%"}
    ]}
  ]
}
